Series [1] has as its system Trypanosoma brucei rhodesiense. The experiment in a line: Inhibition of ornithine decarboxylase in Trypanosoma brucei rhodesiense STIB900 assessed as intracellular ornithine level at 50 uM after 20 mins (reference value: 4 +/- 1 uM). Type of series: cell-based.
Series [2] deals with Trypanosoma brucei. As to the kind of experiment: Irreversible inhibition of trypanothione synthatase in Trypanosoma brucei using GSH as substrate at 200 uM after 240 mins.
The test system of series [3] is Trypanosoma brucei rhodesiense. As to the kind of experiment: Induction of CYN-thiol adduct formation in Trypanosoma brucei rhodesiense assessed as intracellular CYN level at 50 uM after 5 mins by UHPLC-MS/MS analysis. Type of series: organism-based. The following applies: in vivo.
The test system of series [4] is Trypanosoma brucei rhodesiense. The experiment in a line: Induction of CYN-thiol adduct formation in Trypanosoma brucei rhodesiense assessed as extracellular CYN level at 50 uM after 5 mins by UHPLC-MS/MS analysis. Type of series: organism-based. The following applies: in vivo.
The subject of series [5] is Trypanosoma brucei rhodesiense. The experiment in a line: Induction of CYN-thiol adduct formation in Trypanosoma brucei rhodesiense assessed as GS-CYN monoadduct level at 50 uM after 5 mins by UHPLC-MS/MS analysis. The series is classed as organism-based. The settings on record: in vivo.
In series [6] the test system is Trypanosoma brucei rhodesiense. The experiment in a line: Induction of CYN-thiol adduct formation in Trypanosoma brucei rhodesiense assessed as extracellular CYN level at 50 uM after 20 mins by UHPLC-MS/MS analysis. The series is classed as organism-based. The settings on record: in vivo.
The subject of series [7] is Trypanosoma brucei. The experiment in a line: Antitrypanosomal activity against Trypanosoma brucei assessed as intermediate phenotype at 50 uM after 5 to 10 mins by Giemsa staining-based light microscopy. The series is classed as functional, organism-based.
Series [8] concerns Trypanosoma brucei rhodesiense. The experiment in a line: Induction of CYN-thiol adduct formation in Trypanosoma brucei rhodesiense assessed as extracellular CYN level at 50 uM after 40 mins by UHPLC-MS/MS analysis. The series is classed as organism-based. The settings on record: in vivo.
In series [9] the test system is Trypanosoma brucei rhodesiense. The experiment in a line: Induction of CYN-thiol adduct formation in Trypanosoma brucei rhodesiense assessed as extracellular CYN level at 50 uM after 30 mins by UHPLC-MS/MS analysis. The series is classed as organism-based. The settings on record: in vivo, 0.5 h.
The subject of series [10] is Trypanosoma brucei rhodesiense. The experiment in a line: Induction of CYN-thiol adduct formation in Trypanosoma brucei rhodesiense assessed as extracellular CYN level at 50 uM after 10 mins by UHPLC-MS/MS analysis. The series is classed as organism-based. The settings on record: in vivo.
Series [11] has as its system Trypanosoma brucei. As to the kind of experiment: Inhibition of trypanothione synthatase in Trypanosoma brucei using GSH as substrate at 200 uM.
In series [12] the test system is Trypanosoma brucei rhodesiense. The experiment in a line: Induction of CYN-thiol adduct formation in Trypanosoma brucei rhodesiense assessed as T(S-CYN)2 bisadduct level at 50 uM after 5 mins by UHPLC-MS/MS analysis. Type of series: organism-based. The settings on record: in vivo.
The nature of series [13]: Induction of GS-CYN monoadduct formation by HPLC-MS analysis. Type of series: physicochemical.
The test system of series [14] is Trypanosoma brucei rhodesiense. The experiment in a line: Reduction of GSH level in Trypanosoma brucei rhodesiense at 50 uM after 40 mins by UHPLC-MS/MS analysis. The series is classed as functional, organism-based.
Series [15] has as its system Trypanosoma cruzi. As to the kind of experiment: Inhibition of trypanothione reductase in Trypanosoma cruzi using T(S)2 as substrate at 100 to 200 uM after 240 mins by spectrophotometry in presence of NADPH.
Series [16] relates to Trypanosoma brucei rhodesiense. The experiment in a line: Reduction of T(SH)2 level in Trypanosoma brucei rhodesiense at 50 uM after 40 mins by UHPLC-MS/MS analysis. The series is classed as functional, organism-based.
A short description of series [17]: Induction of T(SH)2-CYN adduct formation by HPLC-MS analysis. Type of series: physicochemical.
In series [18] the test system is Trypanosoma brucei. As to the kind of experiment: Antitrypanosomal activity against Trypanosoma brucei assessed as stumpy phenotype at 50 uM after 40 mins by Giemsa staining-based light microscopy. The series is classed as functional, organism-based.

The source made the active and inactive calls. No cut-off for these calls is given here.

Turning to `NCCCC(N)(C(=O)O)C(F)F` (centres undefined), in [1], the INH amounted to 48 µM.
Consider `C=C(CO)C(=O)O[C@H]1CC(=C)[C@@H]2C[C@H](O)C(=C)[C@@H]2[C@H]2OC(=O)C(=C)[C@@H]21` [CYNAROPICRIN], for which the inhibition in series [2] amounted to 51%. The Activity in [3] was determined as 23 µM; in series [4], 34.9 µM; in [5] it was 42 µM; in series [6], 35.8 µM; in series [8], 37.1 µM; in [9], 33.3 µM. Besides, the Activity in [10] is 39.6 µM; in [12] it was 49 µM; in series [13], “Active”; in series [17], “Active”. In addition, the INH in series [1] was found to be 50 µM. Besides, the outcome in series [7], in series [14], in series [16] and in series [18] was Active. The inhibition result in series [11] and in [15] was “inactive” in each case.

Source of the values: ChEMBL document CHEMBL2439993, “Cynaropicrin targets the trypanothione redox system in Trypanosoma brucei” (Bioorg Med Chem, 2013).
